From patent US6573279B1, “Isoquinoline derivatives or salts thereof” (priority 1999, dated 2003) come the findings set out here.

Structures can show the parent of a compound that is named as a salt.

Data set [1] can be described thus: Test on convulsion expression. Type of data set: in vivo, rat. The settings on record: 40 mg/kg i.v. (tail vein), once; male Wister rats; observed about 1 hour. How it is done:
3. Test on Convulsion Expression
Male rats of a Wister strain having a body weight of 250 to 350 g under awaking were fixed in a cage, and the test compound was administered from a tail vein. The test compound was administered at a dose of either 20 mg/kg (i.v.) or 40 mg/kg (i.v.) once for each rat. […] The influence of the test compound on the spontaneous behavior of the rat was evaluated by the fact whether or not the convulsion was noted within the observed period.

In data set [2] the test system is right atrium sample, spontaneous cardiac rate. Nature of the data set: Test on cardiac rate lowering effect (spontaneously beating isolated right atrium in Magnus tube). The settings on record: Cavia porcellus, 0.5 h; concentration lowering the spontaneous cardiac rate by 30%; guinea pig right atrium; data 30 minutes after addition. How it is done:
2. Test on Cardiac Rate Lowering Effect
The test on cardiac rate lowering effect was carried out by a method according to Walter, K., et al. Eur. J. Pharmacol., 104(1-2):9-18, 1984.
Male guinea pigs of a Hartley strain having a body weight of about 250 to 400 g were fainted away by knocking the head and killed by draining out the blood, and the heart was excised. A right atrium sample was prepared in a Tyrode's solution which was fully aerated with 95% oxygen and 5% carbon dioxide gas. The sample was applied to a hook made of stainless steel and suspended at a load tension of 1.0 g in a Magnus tube filled with a Tyrode's solution which was well aerated with 95% oxygen and 5% carbon dioxide gas, whereby the spontaneously pulsing cardiac rate was recorded. After suspending, the sample was allowed to stand for a stabilization period of 1 hour or more, the test compound was cumulatively added into a Magnus tube every 30 to 45 minutes and a concentration vs. effect curve was determined from the data after 30 minutes from the administration of the substance, whereby the effect was judged. The cardiac rate lowering effect was compared in terms of the concentration (EC30) of the substance which lowered the spontaneous cardiac rate to an extent of 30% from the data before the administration.

A word on the melting point: it is the temperature, or range, at which the solid turns liquid. Molecule `COc1cccc(C(=O)NCCN2CCCC(C(=O)N3CCc4cc(OC)c(OC)cc4C3)C2)c1` (racemic) (as salt: oxalate) [Example 10, (±)-N-{2-[3-(6,7-dimethoxy-1,2,3,4-tetrahydroisoquinoline-2-carbonyl)-piperidino]ethyl}-3-methoxybenzamide oxalate] gave a melting point of 120 to 123 °C. What is called EC30 is the point of the concentration-response curve where the effect stands at 30%. A higher EC30 goes with a need for much substance. Regarding `COc1cc2c(cc1OC)CN(C(=O)C1CCCN(CCC(=O)Nc3ccc4c(c3)OCO4)C1)CC2` (racemic) [Example 2, (±)-3-[3-(6,7-dimethoxy-1,2,3,4-tetrahydroisoquinoline-2-carbonyl)piperidino]-N-(3,4-methylenedioxyphenyl)propanamide hydrochloride], the “General Findings (convulsion)” value in data set [1] is recorded as “No abnormal finding”. This molecule also registered an EC30 in data set [2] of 300 nM.

Regarding `COc1ccc(NC(=O)CCN2CCCC(C(=O)N3CCc4cc(OC)c(OC)cc4C3)C2)cc1` (racemic) [Example 4, (±)-3-[3-(6,7-dimethoxy-1,2,3,4-tetrahydroisoquinoline-2-carbonyl)piperidino]-N-(4-methoxyphenyl)propanamide hydrochloride], the “General Findings (convulsion)” value in data set [1] is reported as “No abnormal finding”. In data set [2], this molecule registered an EC30 of 570 nM. For the molecule `COc1cc2c(cc1OC)CN(C(=O)C1CCCN(CCNC(=O)c3ccc4c(c3)OCO4)C1)CC2` (racemic) [Example 9, (±)-N-{2-[3-(6,7-dimethoxy-1,2,3,4-tetrahydrolsoquinoline-2-carbonyl)piperidino]ethyl}-3,4-methylenedioxybenzamide hydrochloride], the “General Findings (convulsion)” value in data set [1] is “No abnormal finding”. In data set [2], this molecule yielded a concentration for an effect of 30% (EC30) of 270 nM. With `COc1cccc(C(=O)NCCN2CCCC(C(=O)N3CCc4cc(OC)c(OC)cc4C3)C2)c1` (racemic) [Example 10, (±)-N-{2-[3-(6,7-dimethoxy-1,2,3,4-tetrahydroisoquinoline-2-carbonyl)-piperidino]ethyl}-3-methoxybenzamide oxalate], the “General Findings (convulsion)” value in data set [1] is “No abnormal finding”. The molecule further showed an EC30 in data set [2] of 270 nM. Regarding `COc1cc2c(cc1OC)CN(C(=O)[C@@H]1CCCN(CCC(=O)Nc3ccc4c(c3)OCO4)C1)CC2` [Example 5, (−)-3-[(R)-3-(6,7-dimethoxy-1,2,3,4-tetrahydroisoquinoline-2-carbonyl)piperidino]-N-(3,4-methylenedioxyphenyl)propanamide L-tartrate], the “General Findings (convulsion)” value in data set [1] is listed as “No abnormal finding”. The molecule also returned an EC30 in data set [2] of 380 nM. As for `COc1cc2c(cc1OC)CN(C(=O)[C@H]1CCCN(CCC(=O)Nc3ccc4c(c3)OCO4)C1)CC2` [Example 6, (+)-3-[(S)-3-(6,7-dimethoxy-1,2,3,4-tetrahydroisoquinoline-2-carbonyl)piperidino]-N-(3,4-methylenedioxyphenyl)propanamide D-tartrate], the “General Findings (convulsion)” value in data set [1] is given as “No abnormal finding”. In data set [2], the EC30 was found to be 320 nM. As for `COc1cc2c(cc1OC)CN(C(=O)C1CCCN(CCC(=O)Nc3cccc(Cl)c3)C1)CC2` (stereo not drawn) [Example 12], the EC30 in data set [2] was 270 nM.

For `COc1cc2c(cc1OC)CN(C(=O)C1CCCN(CCC(=O)Nc3ccc4ncsc4c3)C1)CC2` (stereo not drawn) [Example 14], in data set [1], the “General Findings (convulsion)” value is reported as “No abnormal finding”. In data set [2], this molecule yielded an EC30 of 470 nM. The molecule `COc1cc2c(cc1OC)CN(C(=O)C1=CCCN(CCC(=O)Nc3ccc4c(c3)OCO4)C1)CC2` [Example 22] registered a melting point of 159 to 160 °C. Still for that read-out and setting: the figure for `COc1ccc(NC(=O)CCN2CCC=C(C(=O)N3CCc4cc(OC)c(OC)cc4C3)C2)cc1` [Example 23] is 155 to 164 °C.

Regarding `COc1ccc(C(=O)NCCN2CCCC(C(=O)N3CCc4cc(OC)c(OC)cc4C3)C2)cc1C` (stereo not drawn) [Example 26], the “General Findings (convulsion)” value in data set [1] is “No abnormal finding”. For the same molecule, the EC30 in data set [2] was 240 nM. As to `COc1ccc(C(=O)NCCN2CCCC(C(=O)N3CCc4cc(OC)c(OC)cc4C3)C2)cc1F` (stereo not drawn) [Example 27], the “General Findings (convulsion)” value in data set [1] was “No abnormal finding”. It took 410 nM to reach the 30% level in data set [2] (EC30). With `COc1cc(C(=O)NCCN2CCCC(C(=O)N3CCc4cc(OC)c(OC)cc4C3)C2)ccc1C` (stereo not drawn) [Example 28], the “General Findings (convulsion)” value in data set [1] was “No abnormal finding”. Take `COc1cc2c(cc1OC)CN(C(=O)C1CCCN(CCNC(=O)c3ccc(F)c(F)c3)C1)CC2` (stereo not drawn) [Example 29]: the “General Findings (convulsion)” value in data set [1] is “No abnormal finding”. In addition, in data set [2], the EC30 turned out to be 290 nM. Take `COc1cc2c(cc1OC)CN(C(=O)C1CCCN(CCNC(=O)c3ccc4c(c3)OCCO4)C1)CC2` (stereo not drawn) [Example 30]: the “General Findings (convulsion)” value in data set [1] is on record as “No abnormal finding”. Molecule `COc1cc2c(cc1OC)CN(C(=O)[C@@H]1CCCN(CCNC(=O)c3ccc4c(c3)OCO4)C1)CC2` [Example 37] came in with a melting point of 150 to 151 °C. Also, the “General Findings (convulsion)” value in data set [1] is “No abnormal finding”. For the same molecule, in data set [2], the EC30 is 300 nM. Turning to `COc1cc2c(cc1OC)CN(C(=O)[C@H]1CCCN(CCNC(=O)c3ccc4c(c3)OCO4)C1)CC2` [Example 38], the melting point is 154 to 155 °C. For the same molecule, in data set [1], the “General Findings (convulsion)” value is “No abnormal finding”. In data set [2], it took 290 nM to reach the 30% level (EC30).

For the molecule `COc1cc2c(cc1OC)CN(C(=O)C1CCCN(CCNC(=O)c3ccc(F)cc3)C1)CC2` (stereo not drawn) [Example 40], the “General Findings (convulsion)” value in data set [1] is given as “No abnormal finding”. Also, in data set [2], the EC30 was 330 nM. As to `COc1cc2c(cc1OC)CN(C(=O)C1=CCCN(CCNC(=O)c3ccc4c(c3)OCO4)C1)CC2` [Example 46], the melting point lay within 162 to 164 °C. As to `COc1ccc(C(=O)NCCN2CCC=C(C(=O)N3CCc4cc(OC)c(OC)cc4C3)C2)cc1` [Example 47], the melting point was in the range of 153 to 154 °C. Besides, in data set [1], the “General Findings (convulsion)” value is on record as “No abnormal finding”.

The molecule `COc1cc2c(cc1OC)CN(C(=O)C1CN(CCNC(=O)c3ccc4c(c3)OCO4)C1)CC2` [Example 48] gave a melting point of 131 to 133 °C. For the molecule `COc1cc2c(cc1OC)CN(C(=O)[C@@H]1CCCN(CCNC(=O)c3ccc(F)cc3)C1)CC2` [Example 49], the “General Findings (convulsion)” value in data set [1] is “No abnormal finding”. In data set [2], the EC30 stood at 290 nM. With `COc1cc2c(cc1OC)CN(C(=O)[C@H]1CCCN(CCNC(=O)c3ccc(F)cc3)C1)CC2` [Example 50], in data set [1], the “General Findings (convulsion)” value is “No abnormal finding”. Also, in data set [2], the EC30 was 310 nM.
